Values belong to the compound of their own block, whether it stands above or below them.
Assays:
[1] = molecular target: T1, synthetic beta-amyloid fibrils (Homo sapiens, UniProt P05067); conditions: in vitro; cited from earlier work
T1 construct: host or cells: synthetic peptide

[2] = PET after injection; cases with clinical and neuroradiological diagnosis of Alzheimer's disease; cited from earlier work
PHFs = test: Morphological studies of PHFs in the presence of phenothiazines (electron microscopy)
tau-tau binding [3] = molecular target: T2, tau-tau binding (Homo sapiens, UniProt P10636); test: Solid-phase tau-tau binding assay (dGA solid phase, dGAE liquid phase), tau Preparation 2; format: biochemical; conditions: Preparation 2
T2 construct: a truncated tau protein corresponding to the core fragment and terminating at Ala390-dGA; dGAE which terminates at Glu-391; made in house; host or cells: E. coli BL21 (DE3), pRK172; DE52 flow-through, P11 phosphocellulose, PEG concentration, no heat step (Preparation 2)
Description: Preparation 2 differs from Preparation 1 above in the following respects: (1) The concentration of cells at the sonication stage is increased by 5-fold. (2) A batchwise adsorption of non-tau proteins to DE52 is included. (3) The proteins are not subjected to heat treatment. (4) The final step involves concentration using polyethylene glycol.
Escherichia coli is grown in 2×TY medium (Oxoid) supplemented with ampicillin (50 micrograms per ml) to late-logarithmic phase. Cells from 5 liters of culture are harvested by centrifugation and the cell pellets frozen rapidly over liquid nitrogen. The pellets are taken up with 50 mM PIPES (pH 6.8) containing 1 mM EDTA, 1 mM dithiothreitol and 1 mM phenylmethylsulphonylfluoride (PMSF) and bacteria lysed by sonication (2×3 min) at 4 C. The mixture is centrifuged at 10,000 rpm for 20 min. The supernatant is rotated with 1 gram of Whatman DE52 for 3 hr at 4 C. The mixture is separated on a column and the flow-through material that fails to bind to DE52 is incubated for 3 hr at 4 C, with rotation, with 0.4 g of Whatman P11 (freshly regenerated according to manufacturer's recommendations). The column is washed with column buffer (50 mM PIPES, pH 6.8 containing 1 mM EGTA, 5 mM EDTA, 0.2 mM MgCl2, 5 mM β-mercaptoethanol and 1 mM PMSF). Tau protein is eluted stepwise with a 0.1 to 1 M gradient of KCl in column buffer. Fractions containing tau (determined by immunoassay) are pooled and dialysed against 80 mM PIPES (pH6.8) containing 1 mM EGTA, 1 mM MgCl2 and 5 mM β-mercatoethanol, using dialysis tubing with a molecular weight cut-off of 1,000. The dialysate is concentrated by applying polyethylene glycol 8000 to the outside of the sac for 2-3 hr. The final concentration of tau ranged from 3 to 10 mg per ml.
When the proteins dGA and dGAE were prepared as indicated above (“Preparation 2”), the properties of the tau-tau binding assay were altered relative to the properties obtained using the preparative method described in WO96/30766 (“Preparation 1”).
The assay is performed using 96 well PVC plates (Falcon Cat. No. 353912 are used), and the following steps:
1. 50 μl dGA (˜10 μg/ml) in carbonate buffer, incubate 1 h at 37° C.
(Carbonate buffer: 50 mM carbonate bicarbonate, pH 9.6 (Na2CO3 1.59 g/l, NaHCO3 2.93 g/l))
2. Wash plate in 0.05% Tween-20.
3. 200 μl PBS+2% Marvel, incubate 1 h at 37° C.
4. Rinse plate 2× in deionised water, then wash in 0.05% Tween-20.
5. 50 μl dGAE (˜10 μg/ml) plus drug in PBS+1% fish skin gelatin+0.05% Tween-20, incubate 1 h at 37° C.
6. Wash plate in 0.05% Tween-20.
7. 50 μl antibody 423 (1:10 dilution in PBS+2% Marvel), incubate 1 h at 37° C.
8. Rinse plate 2× in deionised water, then wash in 0.05% Tween-20.
9. 50 μl HRP-anti-mouse (1:1000 dilution in PBS+0.05% Tween-20), incubate 1 h at 37° C.
10. Wash plate in 0.05% Tween-20, then rinse 1× with deionised water.
11. 50 μl substrate solution, read immediately initial rate over 2 min in plate reader at OD650.
(Substrate solution: 50 mM sodium acetate, pH 5.0+TMB (1 ml/100 ml of a 10 mg/ml solution in DMSO)+H2O2 (10 μl/100 ml)).

tau-tau binding [4] = test: Solid-phase tau-tau binding assay, tau Preparation 1 (WO96/30766); format: biochemical, human
Text: This point was further examined by studying the potency of typical aggregated tau ligands as tau-aggregation inhibitors. It has been shown previously that tau aggregation inhibitors (e.g. diaminophenothiazines) can be identified on the basis of inhibition of tau-tau binding in a solid-phase assay (WO 96/30766). […] Thus, although these compounds are potent ligands for tau within the PHF-core, they are at most weak inhibitors at the site required for inhibition of tau-tau binding.
Large-scale purification (1 liter bacterial culture) of tau fragments was carried out as described by Goedert and Jakes (1990, EMBO J., 9, 4225-4230), with minor modifications. Cells were disrupted by rapid freezing of the cell pellet in liquid nitrogen. The pellets were then suspended in buffer containing 50 mM PIPES, 1 mM dithiothreitol (DTT) (pH 6.8). The thermostable proteins in the supernatant were dialysed against PIPES/DTT, then applied to a column containing phosphocellulose equilibrated in the same buffer. […] Fractions were analysed by SDS-PAGE and both Coomassie staining and immunoblotting. […] Protein concentrations were measured by the Lowry method (Harrington C R (1990), “Lowry protein assay containing sodium dodecyl sulphate in microtitre plates for protein determinations on fractions from brain tissue”, Analytical Biochemistry 186: 285-287).

tau-tau binding [5] = molecular target: T2, tau-tau binding; test: Relief of DMMB inhibition of tau-tau binding by ligands (Preparation 2); format: biochemical
Text: 2. using tau proteins prepared in this manner for testing putative ligands in the tau-tau binding assay provided in WO96/30766 to identify substances which have minimal or entirely absent activity as tau-aggregation inhibitors or enhance tau-tau binding at high concentrations; 3. testing putative ligands in the presence of an exemplary potent tau-aggregation inhibitor, such as DMMB, at an inhibitory concentration; 4. putative ligands can be identified by the property that they lack capacity to block tau-tau binding through the repeat domain, but block the inhibitory activity of a potent tau-aggregation inhibitor.
(ii) contacting (a) a tau protein or a derivative thereof containing the tau core fragment bound to a solid phase so as to expose a high affinity tau capture site (e.g. a truncated tau protein corresponding to the core fragment and terminating at Ala390-dGA), with (b) a liquid phase tau protein or derivative thereof capable of binding to the solid phase tau protein or derivative (e.g. dGAE which terminates at Glu-391), and (c) said selected first agent and (d) a second agent known to be tau-tau binding inhibitor, (iii) selecting a first agent which fully or partially relieves the inhibition of binding of the liquid phase tau protein or derivative of (b) to the solid phase tau protein or derivative of (a) by the inhibitor (d).
Similar results are shown for 15 μM DMMB in the presence of increasing concentrations of Primulin (c) and Thiazin Red (d).
For each graph, Tau-Tau binding is shown in the presence of constant concentrations of DMMB co-incubated with Primulin at 0×, 1×, 5×, 10×, 100× the DMMB concentrations shown.
This implies that the Tau-aggregation enhancement effect of these ligands is proportional to the fraction of ligand-binding sites occupied, presumably within the Tau aggregates introduced into the aqueous-phase of the assay. The mean Bmax for both ligands is ˜1.6. That is, the maximum ligand effect is to produce 1.6-fold the Tau-Tau binding signal seen in the absence of any drug. The mean Kd for this effect is ˜15×. That is, for any given concentration of DMMB>4 μM, 50% of maximal enhancement of Tau-Tau binding can be seen when the ligand molar excess is 15-fold relative to the concentration of DMMB.

tangle fragments = test: Competitive binding assay: displacement of primulin fluorescence from tangle fragments (ifI); design: species or system human; conditions: fluorescence end point
Description: IfI material was homogenised in a 0.2 ml glass homogeniser in PBS. To the suspension, test compounds were added to final concentrations ranging from 0.1% to 0.00001%. […] The suspensions were transferred to a glass slide, and examined by fluorescence microscopy across a range of fluorescence filter blocks, covering excitation and emission wavelengths between 380 nm and 570 nm. The end point sought in these observations was displacement of typical primulin fluorescence from tangle fragments.

T2 sequence (P10636 614-708 limits assumed): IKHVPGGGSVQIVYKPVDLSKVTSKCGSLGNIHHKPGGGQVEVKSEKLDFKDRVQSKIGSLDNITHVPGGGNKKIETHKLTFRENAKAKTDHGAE
T1 sequence (P05067 672-711 limits assumed): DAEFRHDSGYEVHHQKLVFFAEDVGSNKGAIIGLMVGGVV

SMILES: CC(=C(C#N)C#N)c1ccc2cc(N(C)CC[18F])ccc2c1 [FDDNP, 2-(1-{6-[(2-[^18F]fluoroethyl)(methyl)amino]-2-naphthyl}ethylidene)malononitrile]
binding to synthetic beta-amyloid fibrils [1]: bind with high affinity
relative retention time (RRT) [2]: increased relative retention time

SMILES: CN(C)c1ccc2nc3ccc(=[N+](C)C)cc-3sc2c1 [methylene blue]
disruption of PHF structure (PHFs): disruption of PHF structure in the presence of sufficiently high concentrations

inhibition of tau-tau binding (tau-tau binding [3]): no inhibitory activity
inhibition of tau-tau binding (tau-tau binding [4]): weak inhibitors of tau-tau binding
BMax of tau-tau binding (tau-tau binding [5]; 5 μM DMMB, Binding=(BMax×[ligand])/(Kd+[ligand])): 1.64
reversal of inhibitory effect of DMMB on tau-tau binding (tau-tau binding [5]; co-incubation with increasing molar excess of ligand): completely reversed
SMILES: Cc1ccc2sc(-c3ccc(N=Nc4cc(S(=O)(=O)[O-])c5ccccc5c4O)cc3)nc2c1S(=O)(=O)[O-].[Na+].[Na+] [thiazin red]
competition with / displacement of other ligands at tangles (tangle fragments): compete with primulin at equivalent concentrations

Source: patent publication US8097615B2, “Neurofibrillary labels” (Wista Laboratories Ltd., priority 2001, dated 2012)
